Results reported in patent publication US20130034594A1, “FIBERS CONTAINING FERRATES AND METHODS” (BATTELLE MEMORIAL INSTITUTE, priority 2010, published 2013).

What was measured:
[1] = Thermal storage stability under Army Regulation (AR) 70-38 test conditions; assay type: physicochemical
Method: Unexpectedly, unlike all peroxide materials, we found potassium ferrate(VI) to be thermally stable as defined by Army Regulation (AR) 70-38 test conditions. Therefore potassium ferrate(VI) was determined to be stable to storage for long periods, at least 98 days at 71° C., and at least 82 days under conditions of cycling daily from 23° C. to 71° C. and back again. […] In these tests, losses with time varied slightly with test vials ranging from <1% to 10% (±3%) loss respectively after the test periods given.

[2] = Thermal stability of sodium ferrate(VI) (temperature limit); assay type: physicochemical
Description: The ferrate fiber of the present invention can disperse the ferrate formulation mentioned above into one or more suitable polymers to produce the ferrate fiber. Broadly, a formulation of the ferrate is mixed/blended with at least one nonaqueous polymer, and then the mixture can be dispersed and cooled to solidify into the fiber of the present invention. The nonaqueous polymer is defined above. A conventional extrusion method can be used to co-extrude/disperse the ferrate/polymer mixture. Preferably, the polymer is in a liquid form before blending with the ferrate formulation. The polymer can be melted into a liquid polymer before blending. The ferrate is highly oxidative so it is normally not placed in contact with any high temperature organic polymer, nor is it co-extruded/dispersed with other polymers under a relatively high temperature using a conventional extrusion method. Such blending and co-extrusion might decompose the ferrate prematurely. […] Most suitable polymers can melt at a much lower temperature. Therefore, the ferrate(VI) can be blended and then co-extruded/dispersed with one or more melted liquid polymers without causing the ferrate to decompose prematurely even using a relatively vigorous conventional extrusion method.

For potassium ferrate(VI), which “stable to storage (time)” value ([1]; at 71° C., pure (80-100% analytical grade) or moderate purity (50-80% technical grade)) is on record?
The value was “at least 98 days”.

What about the “stable to storage (time)” value ([1]; cycling daily from 23° C. to 71° C. and back again, pure or technical grade) of the same compound?
Its value is “at least 82 days”.

What about the estimated storage stability ([1]; estimated from the AR 70-38 results) of the same compound?
The estimated storage stability was “sufficiently stable for several years of storage”.

Which “stable up to (temperature)” value [2] does the source give for `[Na+].[Na+].[O]=[Fe](=[O])([O-])[O-]` [sodium ferrate(VI)] here?
Its value is “up to 270 °C”.
